Experimental data from US20100292210A1, “Novel Compounds for A-Beta-Related Pathologies” (AstraZeneca AB, priority 2009, published 2010).

System: Aβ42 release
Experiment: Aβ42 release from HEK cells stably expressing APPswe, Meso Scale Discovery electrochemiluminescence assay
Type: cell-based
Conditions: Homo sapiens, HEK293; HEK cell line stably expressing APPswe; 4-6 h incubation with test compound; Aβ42 secreted to cell medium; read-out: pIC50 values of Aβ42 release (converted)
Procedure: The level of activity of the compounds on Aβ formation was tested using the following method:
Compounds were diluted in 100% DMSO and stored at […] prior to use. Human Embryonic Kidney (HEK) cell line stably expressing APP with the Swedish mutation (APPswe) were cultured using Dulbecco's Modified Eagles medium (DMEM) supplied with […] glucose, Na-pyruvate and GlutaMAX with 10% FBS, 100 U/ml penicillin-streptomycin (PEST) respectively, 1×non-essential amino acids (NEAA), […], 100 μg/ml Zeocine. Cells at about 80% confluence were washed with PBS, detached from culture flasks using 1×Trypsin/EDTA diluted in PBS, re-suspended in cell media and plated in 384-well poly-d-lysine coated cell culture plates at about 10000-15000 cells/well, in 25 μL cell media. Optionally, cryo-preserved cells (frozen and stored at −140° C. in 90% cell media and 10% DMSO) were thawed, washed and plated as above. Next the cells were incubated for 15-24 h at 37° C. and 5% CO2, after which cell medium was changed. Fresh medium containing test compound diluted ×200 from prepared compound plate was added to the cells before further incubation for 4-6 hours at 37° C. and 5% CO2. After incubation with test compound the amount of Aβ peptides, including Aβ42, Aβ40, Aβ39, Aβ38 and Aβ37, secreted to cell medium was analyzed using the electrochemiluminescence assay technology from Meso Scale Discovery Technology, in combination with specific antibodies raised against the different Aβ peptides. Potential cytotoxic effects of the compounds were usually assayed by measuring the ATP content (ViaLight) from cell lysate.

| Compound | IC50 |
| --- | --- |
| Cc1nccn1-c1ccc(Nc2ccc3c(n2)N(C2CCCC2)CCN(C)C3=O)cc1 [Example 25, 1-cyclopentyl-4-methyl-8-(4-(2-methyl-1H-imidazol-1-yl)phenylamino)-3,4-dihydro-1H-pyrido[2,3-e][1,4]diazepin-5(2H)-one] | 5010 nM |
| CN1Cc2ccc(Nc3ccc(-c4cnn(C)c4)nc3)nc2O[C@H](c2ccccc2)C1 [Example 58, (R)-4-Methyl-N-(6-(1-methyl-1H-pyrazol-4-yl)pyridin-3-yl)-2-phenyl-2,3,4,5-tetrahydropyrido[3,2-f][1,4]oxazepin-8-amine] | 316 nM |
| COc1cc(Nc2ncc3c(n2)O[C@H](c2ccccc2)CN(CCF)C3)ccc1-n1cnc(C)c1 [Example 12, (R)-6-(2-fluoroethyl)-N-(3-methoxy-4-(4-methyl-1H-imidazol-1-yl)phenyl)-8-phenyl-5,6,7,8-tetrahydropyrimido[5,4-f][1,4]oxazepin-2-amine] | 15.8 nM |
| CN1Cc2ccc(Nc3ccc(-n4ccnc4)cc3)nc2OC(c2ccccc2)C1 (centres unmarked) [Example 18, N-(4-(1H-imidazol-1-yl)phenyl)-4-methyl-2-phenyl-2,3,4,5-tetrahydropyrido[3,2-f][1,4]oxazepin-8-amine] | 100 nM |
| COc1nc(Nc2ccc3c(n2)O[C@H](c2ccccc2)CN(C)C3)ccc1-n1cnc(C)c1 [Example 9, (R)—N-(6-methoxy-5-(4-methyl-1H-imidazol-1-yl)pyridin-2-yl)-4-methyl-2-phenyl-2,3,4,5-tetrahydropyrido[3,2-f][1,4]oxazepin-8-amine] | 7.94 nM |
| COc1cc(Nc2ccc3c(n2)O[C@@H](c2ccccc2)CN(C)C3)ccc1-n1cnc(C)c1 [Example 21, (S)—N-(3-methoxy-4-(4-methyl-1H-imidazol-1-yl)phenyl)-4-methyl-2-phenyl-2,3,4,5-tetrahydropyrido[3,2-f][1,4]oxazepin-8-amine] | 200 nM |
| Cc1nccn1-c1ccc(Nc2ccc3c(n2)OC(c2ccccc2)CN(C)C3=O)cc1 (centres unmarked) [Example 2, 4-methyl-8-(4-(2-methyl-1H-imidazol-1-yl)phenylamino)-2-phenyl-3,4-dihydropyrido[3,2-f][1,4]oxazepin-5(2H)-one] | 1260 nM |
| CN1CC(c2ccccc2)Oc2nc(Nc3ccc(-n4ccnc4)cc3)ccc2C1=O (centres unmarked) [Example 5, 8-(4-(1H-imidazol-1-yl)phenylamino)-4-methyl-2-phenyl-3,4-dihydropyrido[3,2-f][1,4]oxazepin-5(2H)-one] | 1000 nM |
| COc1cc(Nc2ccc3c(n2)OC(c2cccnc2)CN(C(C)=O)C3)ccc1-n1cnc(C)c1 (centres unmarked) [Example 22, 1-(8-(3-Methoxy-4-(4-methyl-1H-imidazol-1-yl)phenylamino)-2-(pyridin-3-yl)-2,3-dihydropyrido[3,2-f][1,4]oxazepin-4(5H)-yl)ethanone] | 501 nM |
| COc1cc(Nc2ccc3c(n2)O[C@H](c2ccccc2)CN(CCO)C3)cnc1-n1cnc(C)c1 [Example 43, (R)-2-(8-(5-methoxy-6-(4-methyl-1H-imidazol-1-yl)pyridin-3-ylamino)-2-phenyl-2,3-dihydropyrido[3,2-f][1,4]oxazepin-4(5H)-yl)ethanol] | 31.6 nM |
| COc1cc(Nc2ccc3c(n2)O[C@H](c2ccccc2)CN(C)C3)ccc1-n1cnc(C)c1 [Example 10, (R)—N-(3-methoxy-4-(4-methyl-1H-imidazol-1-yl)phenyl)-4-methyl-2-phenyl-2,3,4,5-tetrahydropyrido[3,2-f][1,4]oxazepin-8-amine] | 12.6 nM |
| Cc1cn(-c2ccc(Nc3ccc4c(n3)O[C@H](c3ccccc3)CN(CCO)C4)cc2)cn1 [Example 42, (R)-2-(8-(4-(4-Methyl-1H-imidazol-1-yl)phenylamino)-2-phenyl-2,3-dihydropyrido[3,2-f][1,4]oxazepin-4(5H)-yl)ethanol] | 31.6 nM |
| COc1cc(Nc2ccc3c(n2)O[C@H](c2ccccc2)CN(CCO)C3)ccc1C#N [Example 29, (R)-4-(4-(2-Hydroxyethyl)-2-phenyl-2,3,4,5-tetrahydropyrido[3,2-f][1,4]oxazepin-8-ylamino)-2-methoxybenzonitrile] | 1260 nM |
| COc1cc(Nc2ccc3c(n2)OC(C2CC2)CN(C)C3)ccc1-n1cnc(C)n1 (centres unmarked) [Example 51, 2-Cyclopropyl-N-(3-methoxy-4-(3-methyl-1H-1,2,4-triazol-1-yl)phenyl)-4-methyl-2,3,4,5-tetrahydropyrido[3,2-f][1,4]oxazepin-8-amine] | 501 nM |
| COc1cc(Nc2ccc3c(n2)OC(c2ccccc2)CN(CC#N)C3)ccc1-n1cnc(C)c1 (centres unmarked) [Example 14, 2-(8-(3-methoxy-4-(4-methyl-1H-imidazol-1-yl)phenylamino)-2-phenyl-2,3-dihydropyrido[3,2-f][1,4]oxazepin-4(5H)-yl)acetonitrile] | 20 nM |
| COc1cc(Nc2ccc3c(n2)OC(COC(C)C)CN(C)C3)ccc1-n1cnc(C)c1 (centres unmarked) [Example 35, 2-(Isopropoxymethyl)-N-(3-methoxy-4-(4-methyl-1H-imidazol-1-yl)phenyl)-4-methyl-2,3,4,5-tetrahydropyrido[3,2-f][1,4]oxazepin-8-amine] | 200 nM |
| Cc1nccn1-c1ccc(Nc2ccc3c(n2)OC(c2ccccc2)CN(CCO)C3=O)cc1 (centres unmarked) [Example 24, 4-(2-hydroxyethyl)-8-(4-(2-methyl-1H-imidazol-1-yl)phenylamino)-2-phenyl-3,4-dihydropyrido[3,2-f][1,4]oxazepin-5(2H)-one] | 794 nM |
| COc1cc(Nc2ccc3c(n2)O[C@H](c2ccccc2)CN(CC#N)C3)ccc1-n1cnc(C)c1 [Example 47, (R)-2-(8-(3-Methoxy-4-(4-methyl-1H-imidazol-1-yl)phenylamino)-2-phenyl-2,3-dihydropyrido[3,2-f][1,4]oxazepin-4(5H)-yl)acetonitrile] | 15.8 nM |
| Cc1cn(-c2ccc(Nc3ccc4c(n3)OC(c3ccccc3)CN(C)C4)cc2F)cn1 (centres unmarked) [Example 16, N-(3-fluoro-4-(4-methyl-1H-imidazol-1-yl)phenyl)-4-methyl-2-phenyl-2,3,4,5-tetrahydropyrido[3,2-f][1,4]oxazepin-8-amine] | 79.4 nM |
| Cc1nccn1-c1ccc(Nc2ccc3c(n2)OC(c2ccccc2)CN(C)C3)cc1 (centres unmarked) [Example 8, 4-Methyl-N-(4-(2-methyl-1H-imidazol-1-yl)phenyl)-2-phenyl-2,3,4,5-tetrahydropyrido[3,2-f][1,4]oxazepin-8-amine] | 158 nM |
| Cc1noc(-c2ccc(Nc3ccc4c(n3)OC(c3ccccc3)CN(C)C4=O)cc2)n1 (centres unmarked) [Example 1, 4-methyl-8-(4-(3-methyl-1,2,4-oxadiazol-5-yl)phenylamino)-2-phenyl-3,4-dihydropyrido[3,2-f][1,4]oxazepin-5(2H)-one] | 1580 nM |
| COc1cc(Nc2ccc3c(n2)OC(c2ccccc2)CN(C)C3)ccc1-n1cnc(C)c1 (centres unmarked) [Example 7, N-(3-methoxy-4-(4-methyl-1H-imidazol-1-yl)phenyl)-4-methyl-2-phenyl-2,3,4,5-tetrahydropyrido[3,2-f][1,4]oxazepin-8-amine] | 39.8 nM |
| COc1cc(Nc2cnc3c(n2)O[C@H](c2ccccc2)CN(CC#N)C3)ccc1-n1cnc(C)c1 [Example 38, (R)-2-(3-(3-methoxy-4-(4-methyl-1H-imidazol-1-yl)phenylamino)-6-phenyl-6,7-dihydropyrazino[2,3-f][1,4]oxazepin-8(9H)-yl)acetonitrile] | 100 nM |
